Article PMC12606464, “Investigating NFE2L1 activators for targeted protein aggregate clearance: a follow-up study” (RSC Medicinal Chemistry, 2025)

Test system: HCT116 cells expressing EGFP-HttQ74
Test: PolyQ toxicity assay (EGFP-HttQ74, alamarBlue) in HCT116 WT and DDI2 KO cells
Assay type: cell-based, human
Settings: 48 h
Experimental: Fig. 3 (A) HEK293 cells were treated with RUN compounds at a concentration of 7.5 μM for 16 hours. DMSO was used as a vehicle control. Proteasome chymotrypsin-like activity was measured in cell lysates at 37 °C. Data came from three biological replicates (n = 3). Statistical analysis was done using ratio paired t-tests corrected for multiple comparisons with Holm–Šídák's method (α = 0.05). *p < 0.05. Detailed results of the analysis are shown in SI Table S7. […] HCT116 parental cells (WT) and two independent DDI2 knockout clones (KO 04 and KO 11), in which NFE2L1 activation is impaired, were transiently transfected with plasmids encoding non-aggregating EGFP-HttQ23 or aggregation-prone EGFP-HttQ74. Cells were treated with 1 or 3 μM RUN-89 for 48 hours, and viability was measured using the alamarBlue assay. […] Data are shown as the Geomean ± GeoSD from four independent biological replicates (n = 4). Statistical analysis was performed on log2-transformed values using two-way repeated-measures ANOVA followed by Šídak's multiple comparison test. (C right) Parental SH-SY5Y cells (without α-synuclein expression) were treated in the same manner. (C left) The protective effect of RUN compounds was assessed by rotenone-induced α-synuclein proteotoxicity in SH-SY5Y cells, which mimics the PD-like phenotype. Cells were pre-treated with increasing concentrations of RUN compounds (0.312, 0.625, 1.25, and 2.5 μM) for 4 hours and then rotenone (1.125 μM) treatment was done for 24 hours.
To further evaluate the protective capacity of RUN-89 in a polyQ aggregation model, we transiently transfected HCT116 parental cells (wt) and DDI2 knockout clones (KO4 and KO11) with plasmids encoding either a non-aggregating EGFP-HttQ23 or an aggregation-prone EGFP-HttQ74 construct. This model is widely used to study Huntington's disease (HD), a prototypical polyglutamine expansion disorder caused by expanded CAG repeats in the huntingtin gene.[67–69] […] Cells were treated with increasing concentrations of RUN-89 (1 and 3 μM) for 48 h, and viability was assessed using the alamarBlue assay (Fig. 3B). […]

SMILES: COc1ccc(/C=C2\CC(NC(=O)C3CCCC3)C/C(=C\c3ccc(OC)c(OC)c3)C2=O)cc1OC (centres unmarked) [RUN-89]
- Protective effect in DDI2-deficient clones expressing HttQ74 (1 and 3 μM): strongly reduced
- Survival of wild-type cells expressing HttQ74 (1 and 3 μM): significantly improved survival
- Viability of EGFP-HttQ74 cells (mean), KO 04, 1 μM (HCT116 DDI2-/- KO 04, 1 μM, alamarBlue): 41.44
- Viability of EGFP-HttQ74 cells (mean), KO 04, 3 μM (HCT116 DDI2-/- KO 04, 3 μM, alamarBlue): 16.49
- Viability of EGFP-HttQ74 cells (mean), KO 11, 1 μM (HCT116 DDI2-/- KO 11, 1 μM, alamarBlue): 59.5
- Viability of EGFP-HttQ74 cells (mean), KO 11, 3 μM (HCT116 DDI2-/- KO 11, 3 μM, alamarBlue): 37.35
- Viability of EGFP-HttQ74 cells (mean), WT, 1 μM (HCT116 WT, 1 μM, alamarBlue): 72.36
- Viability of EGFP-HttQ74 cells (mean), WT, 3 μM (HCT116 WT, 3 μM, alamarBlue): 79.66
